Experimental data: US20240092835A1, “NOVEL PEPTIDES CAPABLE OF ALTERING NK CELL ACTIVITY” (Massachusetts Institute of Technology, priority 2022, published 2024)

Assays:
Assay type in all cases: cell-based, human
NKG2A+/NKG2C− NK cells = experiment: NK cell activation markers in NKG2A+/NKG2C- NK cells incubated with peptide and K562 expressing HLA-E (inhibition); details: NKG2A+/NKG2C- NK cells, K562/HLA-E
Procedure: (§1) A human immortalized myelogenous leukemia cell line (K562), which expresses HLA-E was incubated with novel peptides (Table 1) derived from the human proteome or human cytomegalovirus proteome. […] Controls assessments were also performed using NKG2A−/NKG2C− cells (Tables 10-13). Inhibition was indicated by a decrease in percent cells positive for cell surface markers, while activation was indicated by an increase in percent cells positive for cell surface markers.

NKG2A−/NKG2C+ NK cells = experiment: NK cell activation markers in NKG2A-/NKG2C+ NK cells incubated with peptide and K562 expressing HLA-E (activation); details: NKG2A-/NKG2C+ NK cells, K562/HLA-E
Procedure: as §1

NKG2A−/NKG2C− NK cells = experiment: NK cell activation markers in control NKG2A-/NKG2C- NK cells incubated with peptide and K562 expressing HLA-E
Procedure: as §1

VMAPRTLIL [VMAPRTLIL (LIL), positive control peptide, reference compound]
percentage of CCL3+ NK cells (NKG2A+/NKG2C− NK cells; Trial 1): 1.59%
percentage of CD107a+ NK cells (NKG2A+/NKG2C− NK cells; Trial 1): 0.35%
percentage of IFNG+ NK cells (NKG2A+/NKG2C− NK cells; Trial 1): 0%
percentage of TNF+ NK cells (NKG2A+/NKG2C− NK cells; Trial 1): 0%
percentage of CCL3+ NK cells (NKG2A+/NKG2C− NK cells; Trial 2): 14.4%
percentage of CD107a+ NK cells (NKG2A+/NKG2C− NK cells; Trial 2): 2.73%
percentage of IFNG+ NK cells (NKG2A+/NKG2C− NK cells; Trial 2): 0.59%
percentage of TNF+ NK cells (NKG2A+/NKG2C− NK cells; Trial 2): 0.39%
percentage of CCL3+ NK cells (NKG2A+/NKG2C− NK cells; Trial 3): 4.32%
percentage of CD107a+ NK cells (NKG2A+/NKG2C− NK cells; Trial 3): 1.95%
percentage of IFNG+ NK cells (NKG2A+/NKG2C− NK cells; Trial 3): 0.87%
percentage of TNF+ NK cells (NKG2A+/NKG2C− NK cells; Trial 3): 0.46%
percentage of CCL3+ NK cells (NKG2A+/NKG2C− NK cells; Trial 4): 0.75%
percentage of CD107a+ NK cells (NKG2A+/NKG2C− NK cells; Trial 4): 0.77%
percentage of IFNG+ NK cells (NKG2A+/NKG2C− NK cells; Trial 4): 0.08%
percentage of TNF+ NK cells (NKG2A+/NKG2C− NK cells; Trial 4): 0.08%
percentage of CCL3+ NK cells (NKG2A+/NKG2C− NK cells; Trial 5): 1.56%
percentage of CD107a+ NK cells (NKG2A+/NKG2C− NK cells; Trial 5): 0.56%
percentage of IFNG+ NK cells (NKG2A+/NKG2C− NK cells; Trial 5): 0.06%
percentage of TNF+ NK cells (NKG2A+/NKG2C− NK cells; Trial 5): 0.06%
percentage of CCL3+ NK cells (NKG2A+/NKG2C− NK cells; Trial 6): 0.92%
percentage of CD107a+ NK cells (NKG2A+/NKG2C− NK cells; Trial 6): 0.92%
percentage of IFNG+ NK cells (NKG2A+/NKG2C− NK cells; Trial 6): 0.05%
percentage of TNF+ NK cells (NKG2A+/NKG2C− NK cells; Trial 6): 0.05%
percentage of CCL3+ NK cells (NKG2A−/NKG2C+ NK cells; Trial 1): 76.7%
percentage of CD107+ NK cells (NKG2A−/NKG2C+ NK cells; Trial 1): 74.1%
percentage of IFNG+ NK cells (NKG2A−/NKG2C+ NK cells; Trial 1): 64.1%
percentage of TNF+ NK cells (NKG2A−/NKG2C+ NK cells; Trial 1): 48.5%
percentage of CCL3+ NK cells (NKG2A−/NKG2C+ NK cells; Trial 2): 92%
percentage of CD107+ NK cells (NKG2A−/NKG2C+ NK cells; Trial 2): 87%
percentage of IFNG+ NK cells (NKG2A−/NKG2C+ NK cells; Trial 2): 79.8%
percentage of TNF+ NK cells (NKG2A−/NKG2C+ NK cells; Trial 2): 62.5%
percentage of CCL3+ NK cells (NKG2A−/NKG2C+ NK cells; Trial 3): 85.4%
percentage of CD107+ NK cells (NKG2A−/NKG2C+ NK cells; Trial 3): 85.3%
percentage of IFNG+ NK cells (NKG2A−/NKG2C+ NK cells; Trial 3): 78.1%
percentage of TNF+ NK cells (NKG2A−/NKG2C+ NK cells; Trial 3): 61.4%
percentage of CCL3+ NK cells (NKG2A−/NKG2C+ NK cells; Trial 4): 69%
percentage of CD107+ NK cells (NKG2A−/NKG2C+ NK cells; Trial 4): 73.4%
percentage of IFNG+ NK cells (NKG2A−/NKG2C+ NK cells; Trial 4): 59.7%
percentage of TNF+ NK cells (NKG2A−/NKG2C+ NK cells; Trial 4): 50.4%
percentage of CCL3+ NK cells (NKG2A−/NKG2C+ NK cells; Trial 5): 79.6%
percentage of CD107+ NK cells (NKG2A−/NKG2C+ NK cells; Trial 5): 79.9%
percentage of IFNG+ NK cells (NKG2A−/NKG2C+ NK cells; Trial 5): 72.5%
percentage of TNF+ NK cells (NKG2A−/NKG2C+ NK cells; Trial 5): 66.3%
percentage of CCL3+ NK cells (NKG2A−/NKG2C+ NK cells; Trial 6): 56.6%
percentage of CD107+ NK cells (NKG2A−/NKG2C+ NK cells; Trial 6): 63.2%
percentage of IFNG+ NK cells (NKG2A−/NKG2C+ NK cells; Trial 6): 45.9%
percentage of TNF+ NK cells (NKG2A−/NKG2C+ NK cells; Trial 6): 35.5%
percentage CCL3+ NK cells (NKG2A−/NKG2C− NK cells; Trial 1): 31.4%
percentage CD107+ NK cells (NKG2A−/NKG2C− NK cells; Trial 1): 24.4%
percentage TNF+ NK cells (NKG2A−/NKG2C− NK cells; Trial 1): 3.46%
percentage of IFNG+ NK cells (NKG2A−/NKG2C− NK cells; Trial 1): 15.5%
percentage CCL3+ NK cells (NKG2A−/NKG2C− NK cells; Trial 2): 54%
percentage CD107+ NK cells (NKG2A−/NKG2C− NK cells; Trial 2): 33.4%
percentage TNF+ NK cells (NKG2A−/NKG2C− NK cells; Trial 2): 7.41%
percentage of IFNG+ NK cells (NKG2A−/NKG2C− NK cells; Trial 2): 22.8%
percentage CCL3+ NK cells (NKG2A−/NKG2C− NK cells; Trial 3): 46.1%
percentage CD107+ NK cells (NKG2A−/NKG2C− NK cells; Trial 3): 43.2%
percentage TNF+ NK cells (NKG2A−/NKG2C− NK cells; Trial 3): 13.6%
percentage of IFNG+ NK cells (NKG2A−/NKG2C− NK cells; Trial 3): 36.7%
percentage CCL3+ NK cells (NKG2A−/NKG2C− NK cells; Trial 4): 30.8%
percentage CD107+ NK cells (NKG2A−/NKG2C− NK cells; Trial 4): 26.4%
percentage TNF+ NK cells (NKG2A−/NKG2C− NK cells; Trial 4): 8.21%
percentage of IFNG+ NK cells (NKG2A−/NKG2C− NK cells; Trial 4): 18.7%
percentage CCL3+ NK cells (NKG2A−/NKG2C− NK cells; Trial 5): 23.8%
percentage CD107+ NK cells (NKG2A−/NKG2C− NK cells; Trial 5): 17.9%
percentage TNF+ NK cells (NKG2A−/NKG2C− NK cells; Trial 5): 4.32%
percentage of IFNG+ NK cells (NKG2A−/NKG2C− NK cells; Trial 5): 12.1%
percentage CCL3+ NK cells (NKG2A−/NKG2C− NK cells; Trial 6): 21.4%
percentage CD107+ NK cells (NKG2A−/NKG2C− NK cells; Trial 6): 19%
percentage TNF+ NK cells (NKG2A−/NKG2C− NK cells; Trial 6): 3.8%
percentage of IFNG+ NK cells (NKG2A−/NKG2C− NK cells; Trial 6): 9.39%
